Measured values published in PubChem BioAssay (NCI).
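Tested at 5 concentrations; 48 h exposure; 96-well plates; endpoints linearly interpolated, else capped at highest concentration. GI50 = concentration required for 50% inhibition of growth. Definition used: TGI = concentration required for complete inhibition of growth.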

Tests used:
Test in all cases: DTP human tumour cell line panel, 48 h
[1] = system: NCI/ADR-RES ovarian
[2] = system: SK-MEL-28 melanoma
[3] = system: OVCAR-8 ovarian
[4] = system: SK-MEL-2 melanoma
[5] = system: CCRF-CEM leukemia
[6] = system: HT29 colon
[7] = system: LOX IMVI melanoma
[8] = system: SNB-19 CNS
[9] = system: SN12C renal
[10] = system: UO-31 renal

Row | Compound | GI50 [1] [µM] | TGI [1] [µM] | GI50 [2] [µM] | TGI [2] [µM] | GI50 [3] [µM] | TGI [3] [µM] | GI50 [4] [µM] | TGI [4] [µM] | GI50 [5] [µM] | TGI [5] [µM] | GI50 [6] [µM] | TGI [6] [µM] | GI50 [7] [µM] | TGI [7] [µM] | GI50 [8] [µM] | TGI [8] [µM] | GI50 [9] [µM] | TGI [9] [µM] | GI50 [10] [µM] | TGI [10] [µM]
1 | Nc1c(C(=O)Nc2cccc3ccccc23)sc2nc3c(cc12)CCCCCC3 | 0.784 | > 50 | > 50 | > 50 | 2 | > 50 | 17 | > 50 | 1.65 | > 50 | 1.67 | 5.58 | 1.96 | > 50 | 2.62 | > 50 | 3.4 | > 50 | 5.6 | > 50
2 | COc1ccc(S(=O)(=O)Nc2c(/C=C\c3cc(OC)c(OC)c(OC)c3)ccc(OC)c2O)cc1OC | 1.58 | > 100 | 1.74 | > 100 | 0.416 | > 100 | 2.05 | > 100 | 0.125 | > 100 | 0.498 | > 100 | 0.294 | > 100 | 0.506 | > 100 | 0.484 | > 100 | 0.864 | > 100
3 | CCc1cc(Cc2cc(CC)cc(C(C)(C)C)c2O)c(O)c(C(C)(C)C)c1 | 3.94 | 14.7 | 2.39 | 7.53 | 3.45 | 12.3 | 2.63 | 7.08 | 5.16 | > 100 | 2.9 | 11.5 | 3.27 | 12 | 3.13 | 11.8 | 3.82 | 13.7 | 2.79 | 11.7
4 | Cc1cnc2n(c1=O)Cc1ccccc1CO2 | 22.7 | 71.4 | 20.9 | 45.1 | 23.4 | 82.5 | 0.568 | 2.04 | 2.35 | 10.5 | 26.3 | 96.9 | 14.6 | 31.9 | 21.7 | 61.6 | 23.2 | 71.3 | 18.2 | 44.5
5 | COC(=O)c1cccc(COc2ccc([N+](=O)[O-])cc2Cl)c1 |  | > 100 |  | > 100 |  | > 100 |  | > 100 |  | > 100 |  | > 100 |  | > 100 |  | > 100 |  | > 100 |  | > 100
6 | COc1ccc(/C=C2\CCC(CN(C)C)C2=O)cc1 (stereo not given) |  | 5.07 |  | 14.6 |  | 12.1 |  | 17.6 |  | > 25.9 |  | 24.1 |  | 3.63 |  | 23.2 |  | 32.8 |  | 15.5
7 | O=P1(NCCCl)OCCC(OO)N1CCCl (stereo not given) |  | > 100 |  | 39.4 |  | > 100 |  | > 100 |  | > 52.7 |  | > 81.9 |  | 37.5 |  | > 100 |  | > 100 |  | > 100
8 | CC(NC(=O)C1(N)CCCC1)C(=O)O (stereo not given) |  | > 100 |  | > 100 |  | > 100 |  | > 100 |  | > 100 |  | > 100 |  | > 100 |  | > 100 |  | > 100 |  | > 100
9 | Cc1cccc(C)c1NC(=O)/C(CC(=O)CC(c1ccccc1)c1c(O)c2ccccc2oc1=O)=N/O (stereo not given) |  | > 100 |  | > 100 |  | > 100 |  | > 100 |  | > 100 |  | > 100 |  | > 100 |  | > 100 |  | > 100 |  | > 100
10 | COc1ccc2nc3c(cc2c1)C(=O)CC(C(F)(F)F)C3 (stereo not given) | 0.367 | > 100 | 1.26 | > 100 | 1.22 | > 100 | 0.847 | > 100 | 0.223 | > 100 | 0.433 | > 100 | 3.54 | > 100 | 3.61 | > 100 | 0.805 | > 100 | 1.36 | > 100
